{"source": "patent US20110165578A1", "about": "“METHODS FOR DETECTING AND QUANTIFYING OVERSULFATED GLYCOSAMINOGLYCANS” (priority 2008, published 2011)", "key": {"Taq polymerase": {"target": "T1, Taq polymerase (Thermus aquaticus, UniProt P19821)", "T1 construct": "purchased ABI (Applied Biosystems)", "T1 sequence (P19821 whole entry)": "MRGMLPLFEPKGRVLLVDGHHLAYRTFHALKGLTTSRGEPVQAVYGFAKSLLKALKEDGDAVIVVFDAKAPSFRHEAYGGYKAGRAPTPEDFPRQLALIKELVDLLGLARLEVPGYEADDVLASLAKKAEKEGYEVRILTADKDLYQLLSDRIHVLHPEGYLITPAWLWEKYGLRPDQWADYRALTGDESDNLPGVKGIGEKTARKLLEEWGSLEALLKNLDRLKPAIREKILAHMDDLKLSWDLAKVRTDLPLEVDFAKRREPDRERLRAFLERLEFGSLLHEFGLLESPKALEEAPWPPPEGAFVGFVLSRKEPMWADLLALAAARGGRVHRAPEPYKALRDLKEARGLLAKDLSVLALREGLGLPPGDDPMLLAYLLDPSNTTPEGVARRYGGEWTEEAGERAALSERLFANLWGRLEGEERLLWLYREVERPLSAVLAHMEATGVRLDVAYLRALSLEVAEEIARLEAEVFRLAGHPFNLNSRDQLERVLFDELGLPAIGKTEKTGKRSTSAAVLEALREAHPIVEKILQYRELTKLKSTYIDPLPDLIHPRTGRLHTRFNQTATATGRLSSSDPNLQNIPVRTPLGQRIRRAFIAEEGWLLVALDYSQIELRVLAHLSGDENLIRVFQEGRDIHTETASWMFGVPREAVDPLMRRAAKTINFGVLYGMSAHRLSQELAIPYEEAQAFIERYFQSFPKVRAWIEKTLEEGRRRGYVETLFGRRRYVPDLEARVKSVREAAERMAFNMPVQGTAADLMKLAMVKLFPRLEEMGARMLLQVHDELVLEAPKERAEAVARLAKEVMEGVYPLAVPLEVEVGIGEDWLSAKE", "assay": "Taq polymerase inhibition by Taqman real time PCR (gene amplification, CT values)", "assay_type": "biochemical", "conditions": "for Taq polymerase activity / 18S amplification: spiked into heparin and treated with heparinase; for 18S amplification: same conditions; for gene amplification (polymerase activity) after treatment with heparinase: heparinase 2 hours at room temperature, OS-CS 30 ng, heparin 25 mU of lot C1 (FIG. 2B)", "method": "Heparinase treatment: Heparin was treated with heparinase I (1:1 unit:unit reaction unless otherwise noted) for 2 hours at 25° C. in a buffer containing 4 mM Tris-HCl pH 7.5, 0.8 mM CaCl, 10 mM NaCl, and 20 U of RNase inhibitor (ABI). After treatment, the heparin was diluted to a final volume of 50 μl and serial dilutions were prepared in DEPC water as specified. Where indicated, other GAGs and oversulfated GAGs (dermatan sulfate, chondroitin sulfate, and heparan sulfate) were treated with heparinase under the same conditions as described above.\nScreening Assay: cDNA was generated using total RNA from MDA-MB-231 human breast cancer cell line extracted using Trizol reagent (Invitrogen, Carlsbad, Calif.) as per manufacturer's instructions. For each cDNA reaction 1 μg total RNA was reverse transcribed using High Capacity cDNA Reverse Transcription Kit (Applied Biosystems, Foster City Calif.) in a volume of 20 μl and further diluted in DEPC water to 100 μl final volume. The concentration of cDNA was determined using Quant-iT OliGreen ssDNA Reagent (Invitrogen). For each Taqman® reaction, 25 ng of cDNA in a 2.5 μl volume were mixed with 2.5 μl of each dilution of heparinase-treated heparin or hypersulfated GAGs and then subjected to real time PCR using Taqman® Gene Expression assay for human 18S rRNA (20×) and 2× Universal PCR master mix (ABI) in a 25 μl reaction. Amplification levels of 18S are expressed as CT values. CT values represent the cycle at which amplification of a target gene is first detected. The amplification was analyzed using manual settings with a threshold value of 0.1 and the SDS2.3 software from ABI. […] Quantification of the oversulfated GAGs was performed by establishing a cutoff at the minimum concentration of synthetic OS-CS that completely blocks Taq polymerase (500 pg) and tittering all the samples until the activity of Taq polymerase was restored.\nReal time-PCR (Taqman® PCR) is a highly sensitive method for detecting changes in gene expression. Gene amplification depends on a thermostable DNA polymerase from Thermus aquaticus (Taq pol). […] Shown in FIG. 1 are the levels of 18S amplification from 25 ng cDNA derived from MDA-MB-231 cells as determined by Taqman® PCR. While the 18S rRNA is used here, any RNA or DNA template is suitable. Addition of progressively higher amounts of heparin induces a corresponding reduction in Taq polymerase activity that can be monitored by assessing 18S cDNA amplification. […] Treatment of heparin with 1 unit of heparinase for 2 hrs at 25° C. overcomes the blocking activity of up to 50 mU of heparin (FIG. 1A).\nTo compare the use of different template sequences to measure the inhibition of Taq polymerase activity by oversulfated GAGs, heparin preparations were processed and RNA was isolated as detailed in Example 1, except that cDNAs were generated and amplified from the Actin B and GAPDH RNA sequences, in addition to the 18S rRNA.\nTable 1 compares the effects of different oversulfated GAGs on the amplification of 18S, Actin B, and GAPDH sequences by Taq polymerase, as shown by mean cycle thresholds (CT) of amplification detection. The CT value indicating no inhibition of Taq polymerase activity varied slightly by template, but was maximally <20. […] Addition of progressively higher amounts of over sulfated chondroitin sulfate (OS-CS), oversulfated dermatan sulfate (OS-DS), and oversulfated heparan sulfate (OS-HS) to cDNA induced a corresponding reduction in Taq polymerase amplification of 18S, Actin B, and GAPDH."}, "porcine model": {"tested_on": "porcine model", "conditions": "5 mg/kg i.v. in bolus; cited from earlier work"}, "[1]": {"conditions": "any concentration tested (0-125 ng)"}}}
{"substance": "Chondroitin sulfate E [CS-E]", "values": [{"measurement": "Taq polymerase activity", "setting": "Taq polymerase; highest concentration tested (125 ng)", "value": "trace of inhibitory effect"}]}
{"substance": "Chondroitin sulfate type A [CS-A]", "values": [{"measurement": "Taq polymerase activity", "setting": "Taq polymerase; [1]", "value": "did not inhibit"}]}
{"substance": "oversulfated heparan sulfate [OS-HS]", "values": [{"measurement": "mean cycle threshold (CT) of amplification detection", "setting": "Taq polymerase; 18S template, 0.3 ng", "value": 14.49}, {"measurement": "mean cycle threshold (CT) of amplification detection", "setting": "Taq polymerase; 18S template, 0.9 ng", "value": 26.00}, {"measurement": "mean cycle threshold (CT) of amplification detection", "setting": "Taq polymerase; 18S template, 2.7 ng", "value": 40.00}, {"measurement": "mean cycle threshold (CT) of amplification detection", "setting": "Taq polymerase; 18S template, 8.3 ng", "value": 40.00}, {"measurement": "mean cycle threshold (CT) of amplification detection", "setting": "Taq polymerase; 18S template, 25 ng", "value": 40.00}, {"measurement": "mean cycle threshold (CT) of amplification detection", "setting": "Taq polymerase; Actin B template, 0.3 ng", "value": 27.12}, {"measurement": "mean cycle threshold (CT) of amplification detection", "setting": "Taq polymerase; Actin B template, 0.9 ng", "value": 40.00}, {"measurement": "mean cycle threshold (CT) of amplification detection", "setting": "Taq polymerase; Actin B template, 2.7 ng", "value": 40.00}, {"measurement": "mean cycle threshold (CT) of amplification detection", "setting": "Taq polymerase; Actin B template, 8.3 ng", "value": 40.00}, {"measurement": "mean cycle threshold (CT) of amplification detection", "setting": "Taq polymerase; GAPDH template, 0.3 ng", "value": 25.98}, {"measurement": "mean cycle threshold (CT) of amplification detection", "setting": "Taq polymerase; GAPDH template, 0.9 ng", "value": 40.00}, {"measurement": "mean cycle threshold (CT) of amplification detection", "setting": "Taq polymerase; GAPDH template, 2.7 ng", "value": 40.00}, {"measurement": "mean cycle threshold (CT) of amplification detection", "setting": "Taq polymerase; GAPDH template, 8.3 ng", "value": 40.00}, {"measurement": "mean cycle threshold (CT) of amplification detection", "setting": "Taq polymerase; GAPDH template, 25 ng", "value": 40.00}, {"measurement": "18S amplification", "setting": "Taq polymerase", "value": "significantly reduced"}]}
{"substance": "dermatan sulfate [DS]", "values": [{"measurement": "Taq polymerase activity", "setting": "Taq polymerase; [1]", "value": "did not inhibit"}]}
{"substance": "oversulfated dermatan sulfate [OS-DS]", "values": [{"measurement": "mean cycle threshold (CT) of amplification detection", "setting": "Taq polymerase; 18S template, 0.3 ng", "value": 14.13}, {"measurement": "mean cycle threshold (CT) of amplification detection", "setting": "Taq polymerase; 18S template, 0.9 ng", "value": 18.29}, {"measurement": "mean cycle threshold (CT) of amplification detection", "setting": "Taq polymerase; 18S template, 2.7 ng", "value": 40.00}, {"measurement": "mean cycle threshold (CT) of amplification detection", "setting": "Taq polymerase; 18S template, 8.3 ng", "value": 40.00}, {"measurement": "mean cycle threshold (CT) of amplification detection", "setting": "Taq polymerase; 18S template, 25 ng", "value": 40.00}, {"measurement": "mean cycle threshold (CT) of amplification detection", "setting": "Taq polymerase; Actin B template, 0.3 ng", "value": 25.45}, {"measurement": "mean cycle threshold (CT) of amplification detection", "setting": "Taq polymerase; Actin B template, 0.9 ng", "value": 31.85}, {"measurement": "mean cycle threshold (CT) of amplification detection", "setting": "Taq polymerase; Actin B template, 2.7 ng", "value": 40.00}, {"measurement": "mean cycle threshold (CT) of amplification detection", "setting": "Taq polymerase; Actin B template, 8.3 ng", "value": 40.00}, {"measurement": "mean cycle threshold (CT) of amplification detection", "setting": "Taq polymerase; Actin B template, 25 ng", "value": 40.00}, {"measurement": "mean cycle threshold (CT) of amplification detection", "setting": "Taq polymerase; GAPDH template, 0.3 ng", "value": 24.76}, {"measurement": "mean cycle threshold (CT) of amplification detection", "setting": "Taq polymerase; GAPDH template, 0.9 ng", "value": 39.12}, {"measurement": "mean cycle threshold (CT) of amplification detection", "setting": "Taq polymerase; GAPDH template, 2.7 ng", "value": 40.00}, {"measurement": "mean cycle threshold (CT) of amplification detection", "setting": "Taq polymerase; GAPDH template, 8.3 ng", "value": 40.00}, {"measurement": "mean cycle threshold (CT) of amplification detection", "setting": "Taq polymerase; GAPDH template, 25 ng", "value": 40.00}, {"measurement": "18S amplification", "setting": "Taq polymerase", "value": "significantly reduced"}]}
{"substance": "heparin", "values": [{"measurement": "amount of heparin whose blocking activity is overcome by heparinase treatment", "setting": "Taq polymerase; 1 unit of heparinase, 2 hrs at 25° C., 18S (FIG. 1A)", "value": "up to 50 mU"}, {"measurement": "gene amplification (polymerase activity) after treatment with heparinase", "setting": "Taq polymerase", "value": "restores gene amplification"}]}
{"substance": "Heparan sulfate [HS]", "values": [{"measurement": "mean cycle threshold (CT) of amplification detection", "setting": "Taq polymerase; 18S template, 8.3 ng", "value": 13.62}, {"measurement": "mean cycle threshold (CT) of amplification detection", "setting": "Taq polymerase; 18S template, 25 ng", "value": 13.66}, {"measurement": "mean cycle threshold (CT) of amplification detection", "setting": "Taq polymerase; 18S template, 62.5 ng", "value": 13.69}, {"measurement": "mean cycle threshold (CT) of amplification detection", "setting": "Taq polymerase; 18S template, 125 ng", "value": 13.96}, {"measurement": "mean cycle threshold (CT) of amplification detection", "setting": "Taq polymerase; 18S template, 250 ng", "value": 14.36}, {"measurement": "mean cycle threshold (CT) of amplification detection", "setting": "Taq polymerase; Actin B template, 25 ng", "value": 18.36}, {"measurement": "mean cycle threshold (CT) of amplification detection", "setting": "Taq polymerase; GAPDH template, 8.3 ng", "value": 17.68}, {"measurement": "mean cycle threshold (CT) of amplification detection", "setting": "Taq polymerase; GAPDH template, 25 ng", "value": 18.37}, {"measurement": "Taq polymerase amplification of any of the tested templates (18S, Actin B, GAPDH)", "setting": "Taq polymerase; at comparable concentrations", "value": "did not inhibit"}, {"measurement": "Taq polymerase activity", "setting": "Taq polymerase; [1]", "value": "did not inhibit"}]}
{"substance": "oversulfated chondroitin sulfate [OS-CS]", "values": [{"measurement": "amount that completely blocked Taq polymerase mediated 18S cDNA amplification", "setting": "Taq polymerase; 18S template, 25 ng cDNA (FIG. 1C)", "value": 500, "unit": "pg"}, {"measurement": "mean cycle threshold (CT) of amplification detection", "setting": "Taq polymerase; 18S template, 0.08 ng added to cDNA", "value": 13.81}, {"measurement": "mean cycle threshold (CT) of amplification detection", "setting": "Taq polymerase; 18S template, 0.25 ng", "value": 14.38}, {"measurement": "mean cycle threshold (CT) of amplification detection", "setting": "Taq polymerase; 18S template, 0.5 ng", "value": 18.89}, {"measurement": "mean cycle threshold (CT) of amplification detection", "setting": "Taq polymerase; 18S template, 0.75 ng", "value": 31.20}, {"measurement": "mean cycle threshold (CT) of amplification detection", "setting": "Taq polymerase; 18S template, 1 ng", "value": 40.00}, {"measurement": "mean cycle threshold (CT) of amplification detection", "setting": "Taq polymerase; 18S template, 1.25 ng", "value": 40.00}, {"measurement": "mean cycle threshold (CT) of amplification detection", "setting": "Taq polymerase; Actin B template, 0.08 ng", "value": 18.48}, {"measurement": "mean cycle threshold (CT) of amplification detection", "setting": "Taq polymerase; Actin B template, 0.25 ng", "value": 26.89}, {"measurement": "mean cycle threshold (CT) of amplification detection", "setting": "Taq polymerase; Actin B template, 0.5 ng", "value": 38.84}, {"measurement": "mean cycle threshold (CT) of amplification detection", "setting": "Taq polymerase; Actin B template, 0.75 ng", "value": 40.00}, {"measurement": "mean cycle threshold (CT) of amplification detection", "setting": "Taq polymerase; Actin B template, 1 ng", "value": 40.00}, {"measurement": "mean cycle threshold (CT) of amplification detection", "setting": "Taq polymerase; Actin B template, 1.25 ng", "value": 40.00}, {"measurement": "mean cycle threshold (CT) of amplification detection", "setting": "Taq polymerase; GAPDH template, 0.08 ng", "value": 17.22}, {"measurement": "mean cycle threshold (CT) of amplification detection", "setting": "Taq polymerase; GAPDH template, 0.25 ng", "value": 25.13}, {"measurement": "mean cycle threshold (CT) of amplification detection", "setting": "Taq polymerase; GAPDH template, 0.5 ng", "value": 40.00}, {"measurement": "mean cycle threshold (CT) of amplification detection", "setting": "Taq polymerase; GAPDH template, 0.75 ng", "value": 40.00}, {"measurement": "mean cycle threshold (CT) of amplification detection", "setting": "Taq polymerase; GAPDH template, 1 ng", "value": 40.00}, {"measurement": "mean cycle threshold (CT) of amplification detection", "setting": "Taq polymerase; GAPDH template, 1.25 ng", "value": 40.00}, {"measurement": "limit of detection in heparin", "setting": "Taq polymerase; calculated from 500 pg block and heparin potency 6.25 μg/U", "value": "0.16 % (w/w)"}, {"measurement": "gene amplification (polymerase activity) after treatment with heparinase", "setting": "Taq polymerase", "value": "not"}, {"measurement": "18S amplification", "setting": "Taq polymerase", "value": "significantly reduced"}, {"measurement": "reproduction of the clinical syndrome (adverse events)", "setting": "porcine model", "value": "partially reproduce the clinical syndrome"}]}
